{
  "source": "paper PMC10035389",
  "about": "“Safety, Tolerability, and Pharmacokinetics of TAK-931, a Cell Division Cycle 7 Inhibitor, in Patients with Advanced Solid Tumors: A Phase I First-in-Human Study” (Cancer Research Communications, 2022)",
  "origin": "cited, not measured here",
  "system": "patients with advanced solid tumors",
  "settings": "human, in vivo; cited from earlier work",
  "data": [
    {"smiles": "C[C@@]1(c2ncncc2F)NC(=O)c2cc(-c3cn[nH]c3)ccc21", "note": "[LY3143921]", "values": [
      {"measurement": "Rate of drug-related orthostatic hypotension", "result": 50, "unit": "%"}
    ]}
  ]
}
